Data from patent US20180036289A1 (Gilead Sciences, Inc., priority 2016, published 2018).

What was measured:
Experiment in all cases: Cell proliferation assay (ATPlite), drug with vs without cobicistat
Type in all cases: cell-based
769-P = 769-P cell line; 120 hours incubation
Method in brief: (§1)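 Cells seeded at 200-3200/well in ATCC-recommended medium, grown 24 h, then exposed to 9-point 3.16-fold dilutions (3.16×10^−5 to 3.16×10^−9 M, duplicate, 0.4% DMSO final) for 120 h at 37 °C, 5% CO2. ATPlite luminescence gave %-growth versus untreated; IC50 from 4-parameter logistic fit.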

786-O = 786-O cell line; 120 hours incubation
Method in brief: as §1

A-172 = A-172 cell line; 120 hours incubation
Method in brief: as §1

A-427 = A-427 cell line; 120 hours incubation
Method in brief: as §1

A-704 = A-704 cell line; 120 hours incubation
Method in brief: as §1

AN3 CA = AN3 CA cell line; 120 hours incubation
Method in brief: as §1

AU-565 = AU-565 cell line; 120 hours incubation
Method in brief: as §1

AsPC-1 = AsPC-1 cell line; 120 hours incubation
Method in brief: as §1

BT-20 = BT-20 cell line; 120 hours incubation
Method in brief: as §1

C-33 A = C-33 A cell line; 120 hours incubation
Method in brief: as §1

CAL 27 = CAL 27 cell line; 120 hours incubation
Method in brief: as §1

CCRF-CEM = CCRF-CEM cell line; 120 hours incubation
Method in brief: as §1

COLO 205 = COLO 205 cell line; 120 hours incubation
Method in brief: as §1

DU 145 = DU 145 cell line; 120 hours incubation
Method in brief: as §1

FaDu = FaDu cell line; 120 hours incubation
Method in brief: as §1

HCT-15 = HCT-15 cell line; 120 hours incubation
Method in brief: as §1

Hs 578T = Hs 578T cell line; 120 hours incubation
Method in brief: as §1

J82 = J82 cell line; 120 hours incubation
Method in brief: as §1

LNCaP FGC = LNCaP FGC cell line; 120 hours incubation
Method in brief: as §1

LoVo = LoVo cell line; 120 hours incubation
Method in brief: as §1

MCF7 = MCF7 cell line; 120 hours incubation
Method in brief: as §1

MOLT-4 = MOLT-4 cell line; 120 hours incubation
Method in brief: as §1

MeWo = MeWo cell line; 120 hours incubation
Method in brief: as §1

NCI-H82 = NCI-H82 cell line; 120 hours incubation
Method in brief: as §1

RPMI-7951 = RPMI-7951 cell line; 120 hours incubation
Method in brief: as §1

SK-N-AS = SK-N-AS cell line; 120 hours incubation
Method in brief: as §1

SR = SR cell line; 120 hours incubation
Method in brief: as §1

SW480 = SW480 cell line; 120 hours incubation
Method in brief: as §1

T98G = T98G cell line; 120 hours incubation
Method in brief: as §1

U-87 MG = U-87 MG cell line; 120 hours incubation
Method in brief: as §1

CC[C@]1(O)C[C@@H]2CN(CCc3c([nH]c4ccccc34)[C@@](C(=O)OC)(c3cc4c(cc3OC)N(C)[C@H]3[C@@](O)(C(=O)OC)[C@H](OC(C)=O)[C@]5(CC)C=CCN6CC[C@]43[C@@H]65)C2)C1 [vinblastine]
Fold change in IC50 (IC50 [Drug + Cobicistat]/IC50 [Drug]) (769-P): 2.5 fold
Fold change in IC50 (IC50 [Drug + Cobicistat]/IC50 [Drug]) (786-O): 2.5 fold
Fold change in IC50 (IC50 [Drug + Cobicistat]/IC50 [Drug]) (A-172): 3.0 fold
Fold change in IC50 (IC50 [Drug + Cobicistat]/IC50 [Drug]) (A-427): 2.7 fold
Fold change in IC50 (IC50 [Drug + Cobicistat]/IC50 [Drug]) (A-704): 3.8 fold
Fold change in IC50 (IC50 [Drug + Cobicistat]/IC50 [Drug]) (AN3 CA): 3.9 fold
Fold change in IC50 (IC50 [Drug + Cobicistat]/IC50 [Drug]) (AU-565): 3.0 fold
Fold change in IC50 (IC50 [Drug + Cobicistat]/IC50 [Drug]) (AsPC-1): 5.6 fold
Fold change in IC50 (IC50 [Drug + Cobicistat]/IC50 [Drug]) (BT-20): 2.7 fold
Fold change in IC50 (IC50 [Drug + Cobicistat]/IC50 [Drug]) (C-33 A): 1.9 fold
Fold change in IC50 (IC50 [Drug + Cobicistat]/IC50 [Drug]) (CAL 27): 2.8 fold
Fold change in IC50 (IC50 [Drug + Cobicistat]/IC50 [Drug]) (CCRF-CEM): 3.3 fold
Fold change in IC50 (IC50 [Drug + Cobicistat]/IC50 [Drug]) (COLO 205): 4.9 fold
Fold change in IC50 (IC50 [Drug + Cobicistat]/IC50 [Drug]) (DU 145): 5.4 fold
Fold change in IC50 (IC50 [Drug + Cobicistat]/IC50 [Drug]) (FaDu): 2.2 fold
Fold change in IC50 (IC50 [Drug + Cobicistat]/IC50 [Drug]) (HCT-15): 2.3 fold
Fold change in IC50 (IC50 [Drug + Cobicistat]/IC50 [Drug]) (Hs 578T): 3.7 fold
Fold change in IC50 (IC50 [Drug + Cobicistat]/IC50 [Drug]) (J82): 4.2 fold
Fold change in IC50 (IC50 [Drug + Cobicistat]/IC50 [Drug]) (LNCaP FGC): 4.0 fold
Fold change in IC50 (IC50 [Drug + Cobicistat]/IC50 [Drug]) (LoVo): 1.9 fold
Fold change in IC50 (IC50 [Drug + Cobicistat]/IC50 [Drug]) (MCF7): 5.3 fold
Fold change in IC50 (IC50 [Drug + Cobicistat]/IC50 [Drug]) (MOLT-4): 2.8 fold
Fold change in IC50 (IC50 [Drug + Cobicistat]/IC50 [Drug]) (MeWo): 3.2 fold
Fold change in IC50 (IC50 [Drug + Cobicistat]/IC50 [Drug]) (NCI-H82): 3.5 fold
Fold change in IC50 (IC50 [Drug + Cobicistat]/IC50 [Drug]) (RPMI-7951): 3.2 fold
Fold change in IC50 (IC50 [Drug + Cobicistat]/IC50 [Drug]) (SK-N-AS): 3.7 fold
Fold change in IC50 (IC50 [Drug + Cobicistat]/IC50 [Drug]) (SR): 4.0 fold
Fold change in IC50 (IC50 [Drug + Cobicistat]/IC50 [Drug]) (SW480): 3.3 fold
Fold change in IC50 (IC50 [Drug + Cobicistat]/IC50 [Drug]) (T98G): 4.9 fold
Fold change in IC50 (IC50 [Drug + Cobicistat]/IC50 [Drug]) (U-87 MG): 2.6 fold

CC[C@]1(O)C[C@H]2CN(CCc3c([nH]c4ccccc34)[C@@](C(=O)OC)(c3cc4c(cc3OC)N(C=O)[C@H]3[C@@](O)(C(=O)OC)[C@H](OC(C)=O)[C@]5(CC)C=CCN6CC[C@]43[C@@H]65)C2)C1 [vincristine]
Fold change in IC50 (IC50 [Drug + Cobicistat]/IC50 [Drug]) (769-P): 3.5 fold
Fold change in IC50 (IC50 [Drug + Cobicistat]/IC50 [Drug]) (786-O): 2.5 fold
Fold change in IC50 (IC50 [Drug + Cobicistat]/IC50 [Drug]) (A-172): 3.3 fold
Fold change in IC50 (IC50 [Drug + Cobicistat]/IC50 [Drug]) (A-427): 1.9 fold
Fold change in IC50 (IC50 [Drug + Cobicistat]/IC50 [Drug]) (A-704): 2.0 fold
Fold change in IC50 (IC50 [Drug + Cobicistat]/IC50 [Drug]) (AN3 CA): 4.7 fold
Fold change in IC50 (IC50 [Drug + Cobicistat]/IC50 [Drug]) (AU-565): 3.0 fold
Fold change in IC50 (IC50 [Drug + Cobicistat]/IC50 [Drug]) (AsPC-1): 3.1 fold
Fold change in IC50 (IC50 [Drug + Cobicistat]/IC50 [Drug]) (BT-20): 3.2 fold
Fold change in IC50 (IC50 [Drug + Cobicistat]/IC50 [Drug]) (C-33 A): 2.7 fold
Fold change in IC50 (IC50 [Drug + Cobicistat]/IC50 [Drug]) (CAL 27): 2.6 fold
Fold change in IC50 (IC50 [Drug + Cobicistat]/IC50 [Drug]) (CCRF-CEM): 3.6 fold
Fold change in IC50 (IC50 [Drug + Cobicistat]/IC50 [Drug]) (COLO 205): 4.0 fold
Fold change in IC50 (IC50 [Drug + Cobicistat]/IC50 [Drug]) (DU 145): 3.8 fold
Fold change in IC50 (IC50 [Drug + Cobicistat]/IC50 [Drug]) (FaDu): 2.8 fold
Fold change in IC50 (IC50 [Drug + Cobicistat]/IC50 [Drug]) (HCT-15): 2.1 fold
Fold change in IC50 (IC50 [Drug + Cobicistat]/IC50 [Drug]) (Hs 578T): 2.8 fold
Fold change in IC50 (IC50 [Drug + Cobicistat]/IC50 [Drug]) (J82): 3.6 fold
Fold change in IC50 (IC50 [Drug + Cobicistat]/IC50 [Drug]) (LNCaP FGC): 3.6 fold
Fold change in IC50 (IC50 [Drug + Cobicistat]/IC50 [Drug]) (LoVo): 1.6 fold
Fold change in IC50 (IC50 [Drug + Cobicistat]/IC50 [Drug]) (MCF7): 4.8 fold
Fold change in IC50 (IC50 [Drug + Cobicistat]/IC50 [Drug]) (MOLT-4): 2.1 fold
Fold change in IC50 (IC50 [Drug + Cobicistat]/IC50 [Drug]) (MeWo): 2.9 fold
Fold change in IC50 (IC50 [Drug + Cobicistat]/IC50 [Drug]) (NCI-H82): 3.1 fold
Fold change in IC50 (IC50 [Drug + Cobicistat]/IC50 [Drug]) (RPMI-7951): 4.6 fold
Fold change in IC50 (IC50 [Drug + Cobicistat]/IC50 [Drug]) (SK-N-AS): 4.7 fold
Fold change in IC50 (IC50 [Drug + Cobicistat]/IC50 [Drug]) (SR): 3.6 fold
Fold change in IC50 (IC50 [Drug + Cobicistat]/IC50 [Drug]) (SW480): 3.3 fold
Fold change in IC50 (IC50 [Drug + Cobicistat]/IC50 [Drug]) (T98G): 4.1 fold
Fold change in IC50 (IC50 [Drug + Cobicistat]/IC50 [Drug]) (U-87 MG): 3.1 fold

Cc1nc(Nc2ncc(C(=O)Nc3c(C)cccc3Cl)s2)cc(N2CCN(CCO)CC2)n1 [dasatinib]
Fold change in IC50 (IC50 [Drug + Cobicistat]/IC50 [Drug]) (769-P): 3.8 fold
Fold change in IC50 (IC50 [Drug + Cobicistat]/IC50 [Drug]) (786-O): 1.6 fold
Fold change in IC50 (IC50 [Drug + Cobicistat]/IC50 [Drug]) (A-172): 1.7 fold
Fold change in IC50 (IC50 [Drug + Cobicistat]/IC50 [Drug]) (A-427): 5.8 fold
Fold change in IC50 (IC50 [Drug + Cobicistat]/IC50 [Drug]) (A-704): 1.0 fold
Fold change in IC50 (IC50 [Drug + Cobicistat]/IC50 [Drug]) (AN3 CA): 1.2 fold
Fold change in IC50 (IC50 [Drug + Cobicistat]/IC50 [Drug]) (AU-565): 8.4 fold
Fold change in IC50 (IC50 [Drug + Cobicistat]/IC50 [Drug]) (AsPC-1): 1.2 fold
Fold change in IC50 (IC50 [Drug + Cobicistat]/IC50 [Drug]) (BT-20): 1.4 fold
Fold change in IC50 (IC50 [Drug + Cobicistat]/IC50 [Drug]) (C-33 A): 1.2 fold
Fold change in IC50 (IC50 [Drug + Cobicistat]/IC50 [Drug]) (CAL 27): 1.3 fold
Fold change in IC50 (IC50 [Drug + Cobicistat]/IC50 [Drug]) (CCRF-CEM): 1.3 fold
Fold change in IC50 (IC50 [Drug + Cobicistat]/IC50 [Drug]) (COLO 205): 1.2 fold
Fold change in IC50 (IC50 [Drug + Cobicistat]/IC50 [Drug]) (DU 145): 3.6 fold
Fold change in IC50 (IC50 [Drug + Cobicistat]/IC50 [Drug]) (FaDu): 2.1 fold
Fold change in IC50 (IC50 [Drug + Cobicistat]/IC50 [Drug]) (HCT-15): 2.6 fold
Fold change in IC50 (IC50 [Drug + Cobicistat]/IC50 [Drug]) (Hs 578T): 2.5 fold
Fold change in IC50 (IC50 [Drug + Cobicistat]/IC50 [Drug]) (J82): 2.1 fold
Fold change in IC50 (IC50 [Drug + Cobicistat]/IC50 [Drug]) (LNCaP FGC): 1.3 fold
Fold change in IC50 (IC50 [Drug + Cobicistat]/IC50 [Drug]) (LoVo): 1.0 fold
Fold change in IC50 (IC50 [Drug + Cobicistat]/IC50 [Drug]) (MCF7): 1.9 fold
Fold change in IC50 (IC50 [Drug + Cobicistat]/IC50 [Drug]) (MOLT-4): 1.1 fold
Fold change in IC50 (IC50 [Drug + Cobicistat]/IC50 [Drug]) (MeWo): 1.0 fold
Fold change in IC50 (IC50 [Drug + Cobicistat]/IC50 [Drug]) (NCI-H82): 1.1 fold
Fold change in IC50 (IC50 [Drug + Cobicistat]/IC50 [Drug]) (RPMI-7951): 3.0 fold
Fold change in IC50 (IC50 [Drug + Cobicistat]/IC50 [Drug]) (SK-N-AS): 1.6 fold
Fold change in IC50 (IC50 [Drug + Cobicistat]/IC50 [Drug]) (SR): 1.9 fold
Fold change in IC50 (IC50 [Drug + Cobicistat]/IC50 [Drug]) (SW480): 1.0 fold
Fold change in IC50 (IC50 [Drug + Cobicistat]/IC50 [Drug]) (T98G): 2.3 fold
Fold change in IC50 (IC50 [Drug + Cobicistat]/IC50 [Drug]) (U-87 MG): 1.1 fold
